Data published in patent US11000033B2, “Ketone or oxime compound, and herbicide” (NISSAN CHEMICAL CORPORATION, priority 2014, dated 2021).

Legend:
Type in all cases: in vivo
rapeseed [1] = test: Test Example 5: effect on crop by foliage application, plastic box (symbol g); conditions: 320 g/ha, 3 weeks after application
How it was run: (§1)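 Box culture: sterile diluvial soil, seeds spot-sown, ~1.5 cm cover, raised under glass at 25–30° C.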

corn = test: Test Example 4: effect on crop by soil treatment (symbol c); conditions: application herbicide amount 320 g/ha
How it was run: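 Sterilized diluvial soil, spot sowing, ~1.5 cm soil cover; greenhouse 25–30° C.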

[2] = test system: Echinochloa crus-galli var. crus-galli; test: Test Example 5: herbicidal effect by foliage application, plastic box (symbol H); conditions: 320 g/ha, 3 weeks after application
How it was run: (§2)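 Post-emergence spray; diluvial soil (sterilized), ~1.5 cm seed cover; greenhouse 25–30° C; 14-day-old plants; water-diluted emulsion at predetermined dose; visual score at 3 wk post-treatment.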

Setaria viridis [3] = test: Test Example 4: herbicidal effect by soil treatment (symbol G); conditions: application herbicide amount 320 g/ha
How it was run: (§3)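 Seeds were sown in sterilized diluvial soil, covered with about 1.5 cm of soil, and the soil surface was sprayed with a water-diluted emulsion of the compound at a predetermined rate. Plants grew in a greenhouse at 25° C. to 30° C.; effects were scored visually 3 weeks after application.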

Stellaria media [4] = test: Test Example 5: herbicidal effect by foliage application, plastic box (symbol P); conditions: 320 g/ha, 3 weeks after application
How it was run: as §2

Apera spica-venti = test: Test Example 4: herbicidal effect by soil treatment (symbol L); conditions: application herbicide amount 320 g/ha
How it was run: as §3

Alopecurus myosuroides = test: Test Example 5: herbicidal effect by foliage application, plastic box (symbol J); conditions: 320 g/ha, 3 weeks after application
How it was run: as §2

Stellaria media [5] = test: Test Example 4: herbicidal effect by soil treatment (symbol P); conditions: application herbicide amount 320 g/ha
How it was run: as §3

rapeseed [6] = test: Test Example 4: effect on crop by soil treatment (symbol g); conditions: application herbicide amount 320 g/ha
How it was run: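 Plants are raised in a greenhouse (25° C. to 30° C.) from spot-sown seed, which sits under about 1.5 cm of sterilized diluvial soil in a box shared with weed species.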

Lolium multiflorum Lam. = test: Test Example 4: herbicidal effect by soil treatment (symbol K); conditions: application herbicide amount 320 g/ha
How it was run: as §3

Monochoria vaginalis = test: Test Example 1: herbicidal activity, application before weed generation in submerged conditions (symbol C); conditions: application herbicide amount 320 g/ha
How it was run: (§4)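 In a flooded pot test with alluvial soil, the emulsion-formulated compound was diluted with water to a predetermined amount and applied to the floodwater immediately on the sowing day. Pots were held in a greenhouse at 25–30 °C for 3 weeks before each weed was rated.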

[7] = test system: Echinochloa crus-galli var. crus-galli; test: Test Example 4: herbicidal effect by soil treatment (symbol H); conditions: application herbicide amount 320 g/ha
How it was run: as §3

Leptochloa chinensis = test: Test Example 3: herbicidal effect by foliage application, Wagner pot (symbol D); conditions: application herbicide amount 320 g/ha
How it was run: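 Post-emergence, paddy-type test: seedlings 14 d old in shallow-flooded (0.1–0.5 cm) alluvial soil, 25–30 °C greenhouse. Emulsion diluted to target rate, sprayed on leaves. Read-out: visual effect on each species at 3 weeks, per set criteria.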

Scirpus juncoides = test: Test Example 1: herbicidal activity, application before weed generation in submerged conditions (symbol B); conditions: application herbicide amount 320 g/ha
How it was run: as §4

Amaranthus retroflexus = test: Test Example 4: herbicidal effect by soil treatment (symbol N); conditions: application herbicide amount 320 g/ha
How it was run: as §3

wheat = test: Test Example 5: effect on crop by foliage application, plastic box (symbol e); conditions: 320 g/ha, 3 weeks after application
How it was run: as §1

Setaria viridis [8] = test: Test Example 5: herbicidal effect by foliage application, plastic box (symbol G); conditions: 320 g/ha, 3 weeks after application
How it was run: as §2

Galium spurium [9] = test: Test Example 4: herbicidal effect by soil treatment (symbol Q); conditions: application herbicide amount 320 g/ha
How it was run: as §3

Galium spurium [10] = test: Test Example 5: herbicidal effect by foliage application, plastic box (symbol Q); conditions: 320 g/ha, 3 weeks after application
How it was run: as §2

SMILES: CON=C(C)CC1CC(OCC#C[Si](C)(C)C)=C(c2c(C)cc(C)cc2C)C1=O (stereo not drawn) [1-031]
- g: rapeseed, effect on crop grade (rapeseed [1]): 3 (Herbicidal ratio of 40% or higher and lower than 70%)
- c (corn) effect on crop grade (corn): 0 (Herbicidal ratio of 5% or lower (almost no effect))
- H: Echinochloa crus-galli var. crus-galli, herbicidal effect grade [2]: 1 (Herbicidal ratio of 5% or higher and lower than 20%)
- G (Setaria viridis) herbicidal effect grade (Setaria viridis [3]): 0 (Herbicidal ratio of 5% or lower (almost no effect))
- P: Stellaria media, herbicidal effect grade (Stellaria media [4]): 0 (Herbicidal ratio of 5% or lower (almost no effect))
- L (Apera spica-venti) herbicidal effect grade (Apera spica-venti): 0 (Herbicidal ratio of 5% or lower (almost no effect))
- J: Alopecurus myosuroides, herbicidal effect grade (Alopecurus myosuroides): 3 (Herbicidal ratio of 40% or higher and lower than 70%)
- P (Stellaria media) herbicidal effect grade (Stellaria media [5]): 0 (Herbicidal ratio of 5% or lower (almost no effect))
- g (rapeseed) effect on crop grade (rapeseed [6]): 3 (Herbicidal ratio of 40% or higher and lower than 70%)
- K (Lolium multiflorum Lam.) herbicidal effect grade (Lolium multiflorum Lam.): 0 (Herbicidal ratio of 5% or lower (almost no effect))
- Herbicidal effect grade, C: Monochoria vaginalis (Monochoria vaginalis): 2 (Herbicidal ratio of 20% or higher and lower than 40%)
- H (Echinochloa crus-galli var. crus-galli) herbicidal effect grade [7]: 0 (Herbicidal ratio of 5% or lower (almost no effect))
- herbicidal effect on D (Leptochloa chinensis), grade 0-5 (Leptochloa chinensis): 4 (Herbicidal ratio of 70% or higher and lower than 90%)
- Herbicidal effect grade, B: Scirpus juncoides (Scirpus juncoides): 4 (Herbicidal ratio of 70% or higher and lower than 90%)
- N (Amaranthus retroflexus) herbicidal effect grade (Amaranthus retroflexus): 0 (Herbicidal ratio of 5% or lower (almost no effect))
- e: wheat, effect on crop grade (wheat): 0 (Herbicidal ratio of 5% or lower (almost no effect))
- G: Setaria viridis, herbicidal effect grade (Setaria viridis [8]): 1 (Herbicidal ratio of 5% or higher and lower than 20%)
- Q (Galium spurium) herbicidal effect grade (Galium spurium [9]): 0 (Herbicidal ratio of 5% or lower (almost no effect))
- Q: Galium spurium, herbicidal effect grade (Galium spurium [10]): 0 (Herbicidal ratio of 5% or lower (almost no effect))

SMILES: CCCCCCCCC(=O)OC1=C(c2c(C)cc(C)cc2C)C(=O)C(CC(C)=NOC)C1 (stereo not drawn) [1-033]
- g: rapeseed, effect on crop grade (rapeseed [1]): 4 (Herbicidal ratio of 70% or higher and lower than 90%)
- c (corn) effect on crop grade (corn): 4 (Herbicidal ratio of 70% or higher and lower than 90%)
- H: Echinochloa crus-galli var. crus-galli, herbicidal effect grade [2]: 5 (Herbicidal ratio of 90% or more (almost completely withered))
- G (Setaria viridis) herbicidal effect grade (Setaria viridis [3]): 5 (Herbicidal ratio of 90% or more (almost completely withered))
- P: Stellaria media, herbicidal effect grade (Stellaria media [4]): 3 (Herbicidal ratio of 40% or higher and lower than 70%)
- L (Apera spica-venti) herbicidal effect grade (Apera spica-venti): 5 (Herbicidal ratio of 90% or more (almost completely withered))
- J: Alopecurus myosuroides, herbicidal effect grade (Alopecurus myosuroides): 5 (Herbicidal ratio of 90% or more (almost completely withered))
- P (Stellaria media) herbicidal effect grade (Stellaria media [5]): 0 (Herbicidal ratio of 5% or lower (almost no effect))
- g (rapeseed) effect on crop grade (rapeseed [6]): 5 (Herbicidal ratio of 90% or more (almost completely withered))
- K (Lolium multiflorum Lam.) herbicidal effect grade (Lolium multiflorum Lam.): 5 (Herbicidal ratio of 90% or more (almost completely withered))
- Herbicidal effect grade, C: Monochoria vaginalis (Monochoria vaginalis): 1 (Herbicidal ratio of 5% or higher and lower than 20%)
- H (Echinochloa crus-galli var. crus-galli) herbicidal effect grade [7]: 5 (Herbicidal ratio of 90% or more (almost completely withered))
- herbicidal effect on D (Leptochloa chinensis), grade 0-5 (Leptochloa chinensis): 5 (Herbicidal ratio of 90% or more (almost completely withered))
- Herbicidal effect grade, B: Scirpus juncoides (Scirpus juncoides): 4 (Herbicidal ratio of 70% or higher and lower than 90%)
- N (Amaranthus retroflexus) herbicidal effect grade (Amaranthus retroflexus): 5 (Herbicidal ratio of 90% or more (almost completely withered))
- e: wheat, effect on crop grade (wheat): 5 (Herbicidal ratio of 90% or more (almost completely withered))
- G: Setaria viridis, herbicidal effect grade (Setaria viridis [8]): 5 (Herbicidal ratio of 90% or more (almost completely withered))
- Q (Galium spurium) herbicidal effect grade (Galium spurium [9]): 3 (Herbicidal ratio of 40% or higher and lower than 70%)
- Q: Galium spurium, herbicidal effect grade (Galium spurium [10]): 1 (Herbicidal ratio of 5% or higher and lower than 20%)

SMILES: CCC(CC1CC(O)=C(c2c(C)cc(C)cc2C)C1=O)=NOC (stereo not drawn) [1-038]
- g: rapeseed, effect on crop grade (rapeseed [1]): 4 (Herbicidal ratio of 70% or higher and lower than 90%)
- c (corn) effect on crop grade (corn): 3 (Herbicidal ratio of 40% or higher and lower than 70%)
- H: Echinochloa crus-galli var. crus-galli, herbicidal effect grade [2]: 5 (Herbicidal ratio of 90% or more (almost completely withered))
- G (Setaria viridis) herbicidal effect grade (Setaria viridis [3]): 5 (Herbicidal ratio of 90% or more (almost completely withered))
- P: Stellaria media, herbicidal effect grade (Stellaria media [4]): 0 (Herbicidal ratio of 5% or lower (almost no effect))
- L (Apera spica-venti) herbicidal effect grade (Apera spica-venti): 5 (Herbicidal ratio of 90% or more (almost completely withered))
- J: Alopecurus myosuroides, herbicidal effect grade (Alopecurus myosuroides): 5 (Herbicidal ratio of 90% or more (almost completely withered))
- P (Stellaria media) herbicidal effect grade (Stellaria media [5]): 0 (Herbicidal ratio of 5% or lower (almost no effect))
- g (rapeseed) effect on crop grade (rapeseed [6]): 4 (Herbicidal ratio of 70% or higher and lower than 90%)
- K (Lolium multiflorum Lam.) herbicidal effect grade (Lolium multiflorum Lam.): 5 (Herbicidal ratio of 90% or more (almost completely withered))
- Herbicidal effect grade, C: Monochoria vaginalis (Monochoria vaginalis): 3 (Herbicidal ratio of 40% or higher and lower than 70%)
- H (Echinochloa crus-galli var. crus-galli) herbicidal effect grade [7]: 5 (Herbicidal ratio of 90% or more (almost completely withered))
- herbicidal effect on D (Leptochloa chinensis), grade 0-5 (Leptochloa chinensis): 5 (Herbicidal ratio of 90% or more (almost completely withered))
- Herbicidal effect grade, B: Scirpus juncoides (Scirpus juncoides): 5 (Herbicidal ratio of 90% or more (almost completely withered))
- N (Amaranthus retroflexus) herbicidal effect grade (Amaranthus retroflexus): 3 (Herbicidal ratio of 40% or higher and lower than 70%)
- e: wheat, effect on crop grade (wheat): 4 (Herbicidal ratio of 70% or higher and lower than 90%)
- G: Setaria viridis, herbicidal effect grade (Setaria viridis [8]): 5 (Herbicidal ratio of 90% or more (almost completely withered))
- Q (Galium spurium) herbicidal effect grade (Galium spurium [9]): 0 (Herbicidal ratio of 5% or lower (almost no effect))
- Q: Galium spurium, herbicidal effect grade (Galium spurium [10]): 0 (Herbicidal ratio of 5% or lower (almost no effect))
